Activity calls are given as the source filed them. The rule behind the calls is not given here.
Legend:
N1E-115 [1] = assay: Evaluated for the cyclic [3H]GMP formation in murine N1E-115 neuroblastoma cells in absence of neurotensin at conc. of 32 uM; NS - No significant activity; type: functional, cell-based; details: Mus musculus
N1E-115 [2] = assay: Evaluated for its antagonistic activity against the NT-stimulated cyclic [3H]GMP formation in murine N1E-115 neuroblastoma cells; type: functional, cell-based, Mus musculus
[3] = target: Neurotensin receptor type 1 (Rattus norvegicus, UniProt P20789); assay: Inhibitory concentration required for the displacement of [3H]NT from neurotensin receptor in rat
Chain of Neurotensin receptor type 1 (Rattus norvegicus, UniProt P20789) (P20789 whole entry): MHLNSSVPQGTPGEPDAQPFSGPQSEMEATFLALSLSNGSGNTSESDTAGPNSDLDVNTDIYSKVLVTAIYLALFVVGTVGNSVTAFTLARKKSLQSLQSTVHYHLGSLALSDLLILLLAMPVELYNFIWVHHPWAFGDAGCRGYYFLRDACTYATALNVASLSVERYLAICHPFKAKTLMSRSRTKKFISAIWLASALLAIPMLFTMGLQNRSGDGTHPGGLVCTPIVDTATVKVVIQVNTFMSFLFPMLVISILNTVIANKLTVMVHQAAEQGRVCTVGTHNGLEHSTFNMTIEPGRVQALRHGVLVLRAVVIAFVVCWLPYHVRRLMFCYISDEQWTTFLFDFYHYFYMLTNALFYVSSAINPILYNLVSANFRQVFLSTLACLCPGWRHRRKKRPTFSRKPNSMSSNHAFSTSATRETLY

[4] = target: Neurotensin receptor (Homo sapiens) (UniProt O95665+P30989); assay: Inhibitory concentration required for the displacement of [3H]-NT from neurotensin receptor on human frontal cortex at conc. of 100 uM; NA - No activity; type: tissue-based
Chain of Neurotensin receptor (Homo sapiens) (O95665 whole entry, looked up): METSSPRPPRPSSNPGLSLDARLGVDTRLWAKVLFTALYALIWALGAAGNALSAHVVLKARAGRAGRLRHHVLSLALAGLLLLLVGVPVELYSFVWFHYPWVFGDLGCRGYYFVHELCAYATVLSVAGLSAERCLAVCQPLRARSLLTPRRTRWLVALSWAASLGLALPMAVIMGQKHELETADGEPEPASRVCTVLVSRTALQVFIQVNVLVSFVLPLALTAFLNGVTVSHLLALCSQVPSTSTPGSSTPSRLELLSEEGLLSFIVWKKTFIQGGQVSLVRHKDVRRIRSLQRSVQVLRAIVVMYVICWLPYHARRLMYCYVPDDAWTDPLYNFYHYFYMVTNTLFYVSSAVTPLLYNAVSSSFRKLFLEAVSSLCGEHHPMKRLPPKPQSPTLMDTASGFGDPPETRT
Chain of Neurotensin receptor (Homo sapiens) (P30989 whole entry, looked up): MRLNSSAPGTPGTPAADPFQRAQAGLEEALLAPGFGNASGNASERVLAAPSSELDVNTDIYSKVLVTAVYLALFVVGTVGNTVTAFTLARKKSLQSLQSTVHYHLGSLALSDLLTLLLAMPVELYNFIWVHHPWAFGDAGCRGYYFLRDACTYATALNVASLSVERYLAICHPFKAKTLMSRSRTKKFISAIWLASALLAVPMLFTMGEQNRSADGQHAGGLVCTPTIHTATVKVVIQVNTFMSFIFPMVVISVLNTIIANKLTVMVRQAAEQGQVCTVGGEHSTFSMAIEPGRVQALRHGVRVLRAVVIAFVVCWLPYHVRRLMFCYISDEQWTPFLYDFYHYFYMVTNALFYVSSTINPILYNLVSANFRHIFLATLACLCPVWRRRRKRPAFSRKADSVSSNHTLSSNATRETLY

[5] = target: Neurotensin receptor type 1 (Mus musculus, UniProt O88319); assay: Inhibitory concentration required for the displacement of [3H]NT from neurotensin receptor in mouse; value ranges from 4-6 uM
Chain of Neurotensin receptor type 1 (Mus musculus, UniProt O88319) (O88319 whole entry): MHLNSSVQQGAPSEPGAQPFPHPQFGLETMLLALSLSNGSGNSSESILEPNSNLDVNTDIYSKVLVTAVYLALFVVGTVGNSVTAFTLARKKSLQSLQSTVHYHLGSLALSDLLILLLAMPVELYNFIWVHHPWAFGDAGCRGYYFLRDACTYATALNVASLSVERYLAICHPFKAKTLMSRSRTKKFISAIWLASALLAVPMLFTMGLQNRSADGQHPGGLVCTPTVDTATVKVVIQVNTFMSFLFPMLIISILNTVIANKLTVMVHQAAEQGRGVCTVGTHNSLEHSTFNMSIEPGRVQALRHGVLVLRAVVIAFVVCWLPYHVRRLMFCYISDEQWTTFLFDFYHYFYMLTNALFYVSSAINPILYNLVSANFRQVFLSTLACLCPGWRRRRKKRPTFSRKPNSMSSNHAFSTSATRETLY

Rattus norvegicus [6] = assay: Compound was tested for the inhibition of NT-induced hyperlocomotion at a dose of 80 mg/kg (ip); SI - Significant inhibition; type: functional, organism-based; parameters: dose 80 mg/kg
Rattus norvegicus [7] = assay: Compound was tested for the inhibition of NT-induced hyperlocomotion at a dose of 120 mg/kg (ip); SI - Significant inhibition; type: functional, organism-based; parameters: dose 120 mg/kg
Rattus norvegicus [8] = assay: Compound was tested for the inhibition of NT-induced hyperlocomotion at a dose of 40 mg/kg (ip); NS - No significant inhibition; type: functional, organism-based; parameters: dose 40 mg/kg
[9] = Compound was evaluated for its ability to displace [3H]NT from the neurotensin receptor of bovine brain

IC50 [3]: 49 µM | inhibition [4]: inactive | IC50 [5]: 6 µM | IC50 [9]: 5.5 µM
SMILES: Cc1ccc(S(=O)(=O)NCCNC2(c3ccccc3)OC(=O)c3ccccc32)cc1 (centres undefined)
Activity (N1E-115 [1]): inactive | Ki (N1E-115 [2]): 4.4 µM | inhibition (Rattus norvegicus [6]): Active | inhibition (Rattus norvegicus [7]): Active | inhibition (Rattus norvegicus [8]): inactive
